Experimental data published in patent US20150153326A1, “QUANTITATIVE ANALYSIS OF CONTACT-DEPENDENT CELL-TO-CELL TRANSFER AND DISEASE TRANSMISSION” (Bergen Teknologioverforing AS, BTO, priority 2013, published 2015).

System: HeLa-Kyoto cells
Assay: contact-dependent cell-to-cell DiD organelle transfer, DiD-stained/unstained 1:400 co-culture, 3D confocal quantification
Type: cell-based
Conditions: 100 nM, added 2 hours after plating, cells fixed after 18 hours, 1:400 cell ratio
Experimental: HeLa-Kyoto cells were cultured in DMEM:F12 supplemented with 10% fetal calf serum and 1% penicillin/streptomycin (Invitrogen Detection Technologies, Carlsbad, Calif., USA) on 24-well microscopy plates (Greiner Bio-One GmbH). Cells were maintained under humidified air supplemented with 5% CO2 at 37° C. and plated with a density of approximately 35 000 cells/cm^2. After 24 hours, 200 ng (5 μl)/ml lipid analog Vybrant® DiD Cell-Labelling solution (Invitrogen Detection Technologies, Carlsbad, Calif., USA) was added to the plated cells in culture medium, incubated at 37° C. for 20 min wherein tilted 5 times. After the incubation period, the culture medium was exchanged 4 times within 2 hours. […]
Cells were imaged with a Leica confocal SP5 in resonant scanner mode (zoom 1.7; pinhole airyl; 40× 1.25NA oil immersion objective; 512×512 pixel; z-distance 1.01 μm, line-average 16; offset −1; gain 900-1000V. For the DiD-channel laser power was adjusted for each experiment to a strength resulting in approximately half a cell diameter of out-of-detection range data for average donor cells in order to quantify the transferred DiD in the surrounding cells, present in much lower quantities. For all other channels, the laser power was adjusted to few out-of-detection range pixels at the upper end of the scale. […]

## C=C1[C@@H](C)[C@H]2[C@H](Cc3ccccc3)NC(=O)[C@]23[C@H](OC(C)=O)/C=C/[C@@](C)(O)C(=O)[C@@H](C)C/C=C/[C@H]3[C@@H]1O [Cytochalasin D]
  contact-dependent cell-to-cell DiD transfer (integrated intensity of DiD signal inside acceptor cells) compared to control: substantially inhibited
